Results reported in patent US5716953A, “1,5-benzodiazepine derivatives” (Glaxo Wellcome S.p.A., priority 1993, dated 1998).
Where a name gives a salt, the structure may show the parent alone. Read-outs that look alike come from different tables or passages of the source.

Key:
CCK-A receptor = CCK-A receptor binding (Pancreas Assay)
Protocol: Exp & Ther. 261, 1056-1063, 1992.
(§1) The binding affinity of the compounds of the invention for the CCK-A receptor (Pancreas Assay) and CCK-B receptor (guinea pig cortex assay) was determined using the procedure of G Dal Forno et al J. Pharmacol. Exp & Ther. 261-1056-1063.

CCK-B receptor = molecular target: T1, CCK-B receptor (Cavia porcellus, UniProt H0VZC5); assay: CCK-B receptor binding (guinea pig cortex assay)
T1 construct: CCK-B receptor (guinea pig cortex assay); from tissue; host or cells: guinea pig cortex
T1 sequence (H0VZC5 1-426): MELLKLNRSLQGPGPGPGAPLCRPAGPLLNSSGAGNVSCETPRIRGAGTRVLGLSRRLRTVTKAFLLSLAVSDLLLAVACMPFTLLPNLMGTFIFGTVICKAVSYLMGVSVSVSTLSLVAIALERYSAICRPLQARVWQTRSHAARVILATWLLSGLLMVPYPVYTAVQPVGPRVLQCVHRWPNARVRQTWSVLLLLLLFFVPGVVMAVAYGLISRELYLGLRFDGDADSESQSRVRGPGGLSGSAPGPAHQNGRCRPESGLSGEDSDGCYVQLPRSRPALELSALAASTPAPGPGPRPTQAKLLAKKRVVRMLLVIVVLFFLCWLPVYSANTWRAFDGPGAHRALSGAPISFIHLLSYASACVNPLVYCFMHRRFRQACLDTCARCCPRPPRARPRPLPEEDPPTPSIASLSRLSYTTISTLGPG
Protocol: The greater affinity of the compounds of the invention for the CCK-B receptor over the CCK-A receptor has also been established using the CCK receptor binding assays described by G Dal Forno et al., J. Pharmcol. Exp & Ther. 261, 1056-1063, 1992.
as §1, with “261-1056-1063. The pKi values determined with representative compounds of invention were as follows: […]” for “261-1056-1063.”

mice = assay: oral administration to mice, observation of untoward effects at anxiolytic doses; assay type: in vivo; settings: orally; for untoward effects: at doses at which the compounds exhibit anxiolytic activity
Description: (§2) The compounds of the invention are essentially non-toxic and therapeutically useful doses.

rats = assay: oral administration to rats, observation of untoward effects at anxiolytic doses; assay type: in vivo; settings: orally
Description: as §2

[1] = CCK-B receptor, guinea pig cortex assay, read-out: pKi CCK-B (converted)

SMILES	pKi CCK-A (CCK-A receptor)	Ki (CCK-B receptor; [1]) [nM]	also measured
O=C(Nc1ccccc1)NC1C(=O)N(CCN2CCOCC2)c2ccccc2N(CC23CC4CC(CC(C4)C2)C3)C1=O (single isomer, unassigned; (-)) [Example 18, (-)[1-(1-Adamantylmethyl)-2,4-dioxo-5-[2-(4-morpholino)ethyl]-2,3,4,5-tetrahydro-1H-1,5-benzodiazepin-3-yl]-N'-phenylurea, hydrochloride salt]			anxiolytic activity (mice): exhibit anxiolytic activity; untoward effects (mice): no untoward effects were observed; anxiolytic activity (rats): exhibit anxiolytic activity; untoward effects (rats; at doses at which the compounds exhibit anxiolytic activity): no untoward effects were observed
CC(C)CCN1C(=O)C(NC(=O)Nc2ccccc2)C(=O)N(CCN2CCOCC2)c2ccccc21 (stereo not shown) [Example 1, N-[2,4-Dioxo-1-(3-methyl-1-butyl)-5-[2-(4-morpholinyl)ethyl]-2,3,4,5-tetrahydro-1H-1,5-benzodiazepin-3-yl]-N'-phenylurea]	6.17	2.88	
CC(C)CCN1C(=O)C(NC(=O)Nc2ccccc2)C(=O)N(CCN2CCCCC2)c2ccccc21 (stereo not shown) [Example 2, N-[2,4-Dioxo-1-(3-methyl-1-butyl)-5-[2-(1-piperidino)ethyl]-2,3,4,5-tetrahydro-1H-1,5-benzodiazepin-3-yl]-N'-phenylurea]	5.69	6.76	
CC(C)CCN1C(=O)C(NC(=O)Nc2ccccc2)C(=O)N(CCN(C)C)c2ccccc21 (stereo not shown) [Example 3, N-[5-[2-(Dimethylamino)ethyl]-2,4-dioxo-1-(3-methyl-1-butyl) -2,3,4,5-tetrahydro-1H-1,5-benzodiazepin-3-yl]-N'-phenylurea]	5.48	4.68	
COc1ccc(NC(=O)NC2C(=O)N(CCC(C)C)c3ccccc3N(CCN3CCOCC3)C2=O)cc1 (stereo not shown) [Example 4, N-[2,4-Dioxo-1-(3-methyl-1-butyl)-5-[2-(4-morpholino)ethyl]-2,3,4,5-tetrahydro-1H-1,5-benzodiazepin-3-yl]-N'-(4-methoxyphenyl)urea]	5.29	7.94	
CC(C)CCN1C(=O)C(NC(=O)Nc2ccc(O)cc2)C(=O)N(CCN2CCOCC2)c2ccccc21 (stereo not shown) [Example 5, N-[2,4-Dioxo-1-(3-methyl-1-butyl)-5-[2-(4-morpholinyl)ethyl]-2,3,4,5-tetrahydro-1H-1,5-benzodiazepin-3-yl]-N'-(4-hydroxyphenyl)urea]	5.08	7.41	
CCN(CC)CCN1C(=O)C(NC(=O)Nc2ccccc2)C(=O)N(CCC(C)C)c2ccccc21 (stereo not shown) [Example 6]	5.39	1.58	
CN(C)CCN1C(=O)C(NC(=O)Nc2ccccc2)C(=O)N(CC23CC4CC(CC(C4)C2)C3)c2ccccc21 (stereo not shown) [Example 7, N-[1-(1-Adamantylmethyl)-5-[2-(dimethylamino)ethyl]-2,4-dioxo-2,3,4,5-tetrahydro-1H-1,5-benzodiazepin-3-yl]-N'-phenylurea]	5.49	1.29	
CN(C)CCCN1C(=O)C(NC(=O)Nc2ccccc2)C(=O)N(CC23CC4CC(CC(C4)C2)C3)c2ccccc21 (stereo not shown) [Example 8, N-[1-(1-Adamantylmethyl)-5-[3-(dimethylamino)propyl]-2,4-dioxo-2,3,4,5-tetrahydro-1H-1,5-benzodiazepin-3-yl]-N'-phenylurea]	4.69	3.63	
O=C(Nc1ccccc1)NC1C(=O)N(CCN2CCOCC2)c2ccccc2N(CC23CC4CC(CC(C4)C2)C3)C1=O (stereo not shown) [Example 9, N-[1-(1-Adamantylmethyl)-2,4-dioxo-5-[2-(4-morpholino)ethyl]-2,3,4,5-tetrahydro-1H-benzodiazepin-3-yl]-N'-phenylurea]	5.69	0.575	
O=C(Nc1ccccc1)NC1C(=O)N(CCN2CCCC2)c2ccccc2N(CC23CC4CC(CC(C4)C2)C3)C1=O (stereo not shown) [Example 10, N-[1-(1-Adamantylmethyl)-2,4-dioxo-5-[2-(1-pyrrolidino)ethyl]-2,3,4,5-tetrahydro-1H-benzodiazepin-3-yl]-N'-phenylurea]	5.02	1.05	
CCN(CC)CCN1C(=O)C(NC(=O)Nc2ccccc2)C(=O)N(CC2CCCCC2)c2ccccc21 (stereo not shown) [Example 13, N-[1-(Cyclohexylmethyl)-2,4-dioxo-5-[(2-diethylamino)ethyl]-2,3,4,5-tetrahydro-1H-1,5-benzodiazepin-3-yl]-N'-phenylurea]	5.82	1.02	
Cc1cccc(NC(=O)NC2C(=O)N(CCN3CCCCCC3)c3ccccc3N(c3ccccc3)C2=O)c1 (stereo not shown) [Example 17, N-[2,4-Dioxo-1-[2-(hexamethyleneimino)ethyl]-5-phenyl-2,3,4,5-tetrahydro-1H-benzodiazepin-3-yl]-N'-(3-tolyl)urea]	5.08		Ki (CCK-B receptor): 2 nM

Now from value to compound, other results behind:

pKi CCK-A (CCK-A receptor)	Ki (CCK-B receptor; [1]) [nM]	SMILES	also measured
5.69	0.214	O=C(Nc1ccccc1)NC1C(=O)N(CCN2CCOCC2)c2ccccc2N(CC23CC4CC(CC(C4)C2)C3)C1=O (single isomer, unassigned) [Example 11 (isomer 1), N-[1-(1-Adamantylmethyl)-2,4-dioxo-5-[2-(4-morpholino)ethyl]-2,3,4,5-tetrahydro-1H-benzodiazepin-3-yl]-N'-phenylurea Isomer 1]	anxiolytic activity (mice): exhibit anxiolytic activity; untoward effects (mice): no untoward effects were observed
5.04		N[C@@H](CO)CN1C(=O)C(NC(=O)Nc2ccccc2)C(=O)N(CC23CC4CC(CC(C4)C2)C3)c2ccccc21 (stereo partly drawn) [Example 12, N-[1-(1-Adamantylmethyl)-2,4-dioxo-5-[(3-hydroxy-2(R)amino)propyl]-2,3,4,5-tetrahydro-1H-1,5-benzodiazepin-3-yl]-N'-phenylurea hydrochloride]	pKi CCK-B (CCK-B receptor; CCK-B receptor, guinea pig cortex assay): 8.18
5.88	4.37	O=C(Nc1ccccc1)NC1C(=O)N(CCN2CCOCC2)c2cc(F)ccc2N(CC23CC4CC(CC(C4)C2)C3)C1=O (stereo not shown) [Example 14, N-[1-(1-Adamantylmethyl)-2,4-dioxo-7-fluoro-5-[2-(4-morpholino)ethyl]-2,3,4,5-tetrahydro-1H-1,5-benzodiazepin-3-yl]-N'-phenylurea]	
5.99	1.95	CC(C)CCN1C(=O)C(NC(=O)Nc2ccc(Cl)cc2)C(=O)N(CCN2CCOCC2)c2ccccc21 (stereo not shown) [Example 15, N-[1-(3-methyl-1-butyl)-2,4-dioxo-5-[2-(4-morpholino)ethyl]-2,3,4,5-tetrahydro-1H-benzodiazepin-3-yl]-N'-(4-chlorophenyl)urea]	
5.83	3.63	CC(C)CCN1C(=O)C(NC(=O)Nc2ccc(C(F)(F)F)cc2)C(=O)N(CCN2CCOCC2)c2ccccc21 (stereo not shown) [Example 16, N-[2,4-Dioxo-1-(3-methyl-1-butyl)-5-[2-(4-morpholino)ethyl]-2,3,4,5-tetrahydro-1H-1,5-benzodiazepin-3-yl]-N'-(4-trifluoromethyl)phenylurea]	
